{"source": "the NIST ThermoML archive (doi:10.1016/j.jct.2012.12.019)", "settings": "Liquid, Closed cell (Static) method", "note": "Numbers after ± are expanded uncertainties."}
{"compound": "CCCO", "note": "[propan-1-ol]", "values": [{"measurement": "vapor or sublimation pressure", "setting": "383.2 K", "result": "160.4 ± 3.5", "unit": "kPa"}, {"measurement": "vapor or sublimation pressure", "setting": "393.2 K", "result": "223.3 ± 4.7", "unit": "kPa"}, {"measurement": "vapor or sublimation pressure", "setting": "403.2 K", "result": "303.1 ± 6.3", "unit": "kPa"}, {"measurement": "vapor or sublimation pressure", "setting": "413.2 K", "result": "406.6 ± 8.5", "unit": "kPa"}, {"measurement": "vapor or sublimation pressure", "setting": "423.2 K", "result": "546.1 ± 11", "unit": "kPa"}]}
